Results on 7 molecules are retold here after PubChem BioAssay AID192 (DTP/NCI, 2004).

Each structure is given as a SMILES string. “And” between values parts separate entries of the source, which are not always exact repeats. Identical values can stand only once. Toxic doses and inconclusive results are not listed.

The experiment relates to BDF1 mice, B16 melanoma ip, median survival T/C. Kind of experiment: NCI In Vivo Anticancer Drug Screen. Data for tumor model B16 Melanoma (intraperitoneal) in B6D2F1 (BDF1) mice. The conditions noted are these: endpoint: median survival time, higher = longer survival. In a few lines:
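In this screen, activity was judged from survival or tumor size in treated versus vehicle-treated tumor-bearing mice, reported as T/C.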

[1] abbreviates: dose: 50.0 mg/kg/injection, schedule: Q01DX009 (ip), vehicle: saline with Tween-80.

Regarding `CSC1SCC2C(=O)N(C)C(C(C)C)C(=O)OCC(NC(=O)c3cnc4ccccc4n3)C(=O)NC(C)C(=O)N(C)C1C(=O)N(C)C(C(C)C)C(=O)OCC(NC(=O)c1cnc3ccccc3n1)C(=O)NC(C)C(=O)N2C` (stereo not given), the T/C (dose: 0.1 micrograms/kg/injection, schedule: Q01DX009 (ip), vehicle: saline with Tween-80) is 106 % of control; the T/C (dose: 0.2 micrograms/kg/injection, schedule: Q01DX009 (ip), vehicle: saline with Tween-80) is 105 % of control; the T/C (dose: 0.4 micrograms/kg/injection, schedule: Q01DX009 (ip), vehicle: saline with Tween-80) is 108 % of control; the T/C (dose: 0.9 micrograms/kg/injection, schedule: Q01DX009 (ip), vehicle: saline with Tween-80) is 108 % of control; the T/C (dose: 0.94 micrograms/kg/injection, schedule: Q01DX009 (ip), vehicle: Klucel (hydroxypropylcellulose) (HPC)) is 93 % of control; the T/C (dose: 0.94 micrograms/kg/injection, schedule: Q01DX009 (ip), vehicle: clinical formulation) is 113 % of control. Moreover, the T/C is, setting by setting: (dose: 0.94 micrograms/kg/injection, schedule: Q01DX009 (ip), vehicle: distilled water + alcohol) 118 % of control; (dose: 1.8 micrograms/kg/injection, schedule: Q01DX009 (ip), vehicle: saline with Tween-80) 151 % of control and 167 % of control; (dose: 1.88 micrograms/kg/injection, schedule: Q01DX009 (ip), vehicle: Klucel (hydroxypropylcellulose) (HPC)) 88 % of control; (dose: 1.88 micrograms/kg/injection, schedule: Q01DX009 (ip), vehicle: clinical formulation) 112 % of control; (dose: 1.88 micrograms/kg/injection, schedule: Q01DX009 (ip), vehicle: distilled water + alcohol) 117 % of control; (dose: 1.9 micrograms/kg/injection, schedule: Q01DX009 (ip), vehicle: saline) 156 % of control. Further, the T/C is 102 % of control (dose: 3.75 micrograms/kg/injection, schedule: Q01DX009 (ip), vehicle: Klucel (hydroxypropylcellulose) (HPC)); 113 % of control (dose: 3.75 micrograms/kg/injection, schedule: Q01DX009 (ip), vehicle: distilled water + alcohol); 123 % of control (dose: 3.8 micrograms/kg/injection, schedule: Q01DX009 (ip), vehicle: saline); 107 % of control (dose: 7.5 micrograms/kg/injection, schedule: Q01DX009 (ip), vehicle: Klucel (hydroxypropylcellulose) (HPC)); 123 % of control (dose: 7.5 micrograms/kg/injection, schedule: Q01DX009 (ip), vehicle: distilled water + alcohol); 152 % of control and 155 % of control (dose: 8.0 micrograms/kg/injection, schedule: Q01DX009 (ip), vehicle: other). For the same molecule, the T/C is 115 % of control (dose: 15.0 micrograms/kg/injection, schedule: Q01DX009 (ip), vehicle: Klucel (hydroxypropylcellulose) (HPC)); 169 % of control (dose: 15.0 micrograms/kg/injection, schedule: Q01DX009 (ip), vehicle: clinical formulation); 174 % of control (dose: 15.0 micrograms/kg/injection, schedule: Q01DX009 (ip), vehicle: saline); 161 % of control (dose: 16.0 micrograms/kg/injection, schedule: Q01DX009 (ip), vehicle: other); 160 % of control and 168 % of control (dose: 16.0 micrograms/kg/injection, schedule: Q01DX009 (ip), vehicle: saline sonified); 160 % of control (dose: 16.0 micrograms/kg/injection, schedule: Q01DX009 (ip), vehicle: saline). Further, the T/C reads like this: (dose: 30.0 micrograms/kg/injection, schedule: Q01DX009 (ip), vehicle: clinical formulation) 168 % of control; (dose: 30.0 micrograms/kg/injection, schedule: Q01DX009 (ip), vehicle: saline with Tween-80) 88 % of control; (dose: 30.0 micrograms/kg/injection, schedule: Q01DX009 (ip), vehicle: saline) 183 % of control; (dose: 32.0 micrograms/kg/injection, schedule: Q01DX009 (ip), vehicle: other) 157 % of control and 158 % of control and 160 % of control; (dose: 32.0 micrograms/kg/injection, schedule: Q01DX009 (ip), vehicle: saline sonified) 167 % of control and 170 % of control and 189 % of control; (dose: 32.0 micrograms/kg/injection, schedule: Q01DX009 (ip), vehicle: saline) 165 % of control. Moreover, the T/C is 156 % of control (dose: 32.0 micrograms/kg/injection, schedule: Q04DX003 (ip), vehicle: saline sonified); 173 % of control (dose: 60.0 micrograms/kg/injection, schedule: Q01DX009 (ip), vehicle: clinical formulation); 168 % of control (dose: 60.0 micrograms/kg/injection, schedule: Q01DX009 (ip), vehicle: distilled water + alcohol); 165 % of control (dose: 60.0 micrograms/kg/injection, schedule: Q01DX009 (ip), vehicle: saline); 159 % of control and 189 % of control and 215 % of control (dose: 64.0 micrograms/kg/injection, schedule: Q01DX009 (ip), vehicle: other); 165 % of control and 172 % of control (dose: 64.0 micrograms/kg/injection, schedule: Q01DX009 (ip), vehicle: saline sonified). Also, the T/C was 176 % of control (dose: 64.0 micrograms/kg/injection, schedule: Q01DX009 (ip), vehicle: saline); 174 % of control (dose: 64.0 micrograms/kg/injection, schedule: Q04DX003 (ip), vehicle: saline sonified); 154 % of control (dose: 120.0 micrograms/kg/injection, schedule: Q01DX009 (ip), vehicle: Klucel (hydroxypropylcellulose) (HPC)); 173 % of control (dose: 120.0 micrograms/kg/injection, schedule: Q01DX009 (ip), vehicle: distilled water + alcohol); 162 % of control and 189 % of control (dose: 120.0 micrograms/kg/injection, schedule: Q01DX009 (ip), vehicle: saline with Tween-80); 164 % of control and 188 % of control (dose: 128.0 micrograms/kg/injection, schedule: Q01DX009 (ip), vehicle: saline sonified). The T/C reads like this: (dose: 128.0 micrograms/kg/injection, schedule: Q01DX009 (ip), vehicle: saline) 166 % of control; (dose: 128.0 micrograms/kg/injection, schedule: Q04DX003 (ip), vehicle: saline sonified) 165 % of control; (dose: 192.0 micrograms/kg/injection, schedule: Q04DX003 (ip), vehicle: saline sonified) 180 % of control; (dose: 240.0 micrograms/kg/injection, schedule: Q01DX009 (ip), vehicle: Klucel (hydroxypropylcellulose) (HPC)) 151 % of control; (dose: 240.0 micrograms/kg/injection, schedule: Q01DX009 (ip), vehicle: saline with Tween-80) 115 % of control; (dose: 256.0 micrograms/kg/injection, schedule: Q04DX003 (ip), vehicle: saline sonified) 175 % of control. Besides, the T/C (dose: 480.0 micrograms/kg/injection, schedule: Q01DX009 (ip), vehicle: Klucel (hydroxypropylcellulose) (HPC)) was 168 % of control.
For `Cc1ccc(C)c(C(=O)CCCCl)c1`, the T/C reads like this: (dose: 25.0 mg/kg/injection, schedule: Q01DX009 (ip), vehicle: saline with Tween-80) 118 % of control; under setting [1], 97 % of control; (dose: 100.0 mg/kg/injection, schedule: Q01DX009 (ip), vehicle: saline with Tween-80) 113 % of control.
As to `CCOCCc1ccccn1`, the T/C reads like this: (dose: 12.5 mg/kg/injection, schedule: Q04DX003 (ip), vehicle: saline) 106 % of control; (dose: 25.0 mg/kg/injection, schedule: Q04DX003 (ip), vehicle: saline) 100 % of control; (dose: 50.0 mg/kg/injection, schedule: Q04DX003 (ip), vehicle: saline) 96 % of control.
`CCC1=C[C@H]2CN(CCc3c([nH]c4ccccc34)[C@@](C(=O)OC)(c3cc4c(cc3OC)N(C)[C@H]3[C@@](O)(C(=O)OC)[C@H](OC(C)=O)[C@]5(CC)C=CCN6CC[C@]43[C@@H]65)C2)C1`: the T/C by setting is: (dose: 0.05 mg/kg/injection, schedule: Q01DX009 (ip), vehicle: saline) 116 % of control; (dose: 0.06 mg/kg/injection, schedule: Q01DX009 (ip), vehicle: water) 100 % of control and 107 % of control; (dose: 0.1 mg/kg/injection, schedule: Q01DX009 (ip), vehicle: saline) 116 % of control; (dose: 0.13 mg/kg/injection, schedule: Q01DX009 (ip), vehicle: water) 103 % of control and 120 % of control; (dose: 0.25 mg/kg/injection, schedule: Q01DX009 (ip), vehicle: water) 108 % of control; (dose: 0.8 mg/kg/injection, schedule: Q01DX009 (ip), vehicle: saline) 181 % of control. Besides, the T/C was 208 % of control (dose: 1.6 mg/kg/injection, schedule: Q01DX009 (ip), vehicle: saline) and 175 % of control (dose: 4.0 mg/kg/injection, schedule: Q04DX003 (ip), vehicle: water).
`Cc1cc(O)c(C(C)C)cc1S(=O)(=O)O` (tested in a mixture with another compound): the T/C is, setting by setting: under setting [1], 98 % of control; (dose: 200.0 mg/kg/injection, schedule: Q01DX009 (ip), vehicle: saline with Tween-80) 100 % of control.
Consider `CCOC1=C(N2CC2)C(=O)C(OCC)=C(N2CC2)C1=O`, for which the T/C by setting is: (dose: 0.5 mg/kg/injection, schedule: Q01DX009 (ip), vehicle: saline) 105 % of control; (dose: 2.0 mg/kg/injection, schedule: Q01DX009 (ip), vehicle: saline) 121 % of control.
Regarding `O=C(O)CC[P+](c1ccccc1)(c1ccccc1)c1ccccc1`, the T/C by setting is: (dose: 100.0 mg/kg/injection, schedule: Q04DX003 (ip), vehicle: saline) 101 % of control; (dose: 200.0 mg/kg/injection, schedule: Q04DX003 (ip), vehicle: saline) 116 % of control; (dose: 400.0 mg/kg/injection, schedule: Q04DX003 (ip), vehicle: saline) 116 % of control.
